PubChem BioAssay AID2060884 (Molecular Pharmacology Branch, DTP, NCI, 2025)
One block for each compound: values may come before it.

System: NCI-H929 complex spheroids, viability % test/control
Test: Anticancer human tumor NCI-H929 cell line growth inhibition [RAS];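 further: compound exposure lasted seven days before viability was read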;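 on viability, T/C: 100% = DMSO vehicle control viability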
Details: for viability, T/C: stronger effect = lower value
Summary of the method: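 Tumour cells grown as complex spheroids with HUVEC endothelial cells and mesenchymal stem cells, treated with RAS pathway inhibitor combinations. Each agent spans half-log steps from near clinical Cmax, or 10 microM where Cmax is unknown.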

[1] = curve of first compound, second compound 0.000949 µM
[2] = curve of first compound, second compound 0.003 µM
[3] = curve of first compound, second compound 0.00949 µM
[4] = curve of first compound, second compound 0.03 µM
[5] = curve of first compound, second compound 0.0949 µM
[6] = curve of first compound, second compound 0.3 µM
[7] = second compound 0.000949 µM, first compound 0.0316 µM
[8] = second compound 0.000949 µM, first compound 0.1 µM
[9] = second compound 0.000949 µM, first compound 0.316 µM
[10] = second compound 0.000949 µM, first compound 1 µM
[11] = second compound 0.000949 µM, first compound 3.16 µM
[12] = second compound 0.000949 µM, first compound 10 µM
[13] = second compound 0.003 µM, first compound 0.0316 µM
[14] = second compound 0.003 µM, first compound 0.1 µM
[15] = second compound 0.003 µM, first compound 0.316 µM
[16] = second compound 0.003 µM, first compound 1 µM
[17] = second compound 0.003 µM, first compound 3.16 µM
[18] = second compound 0.003 µM, first compound 10 µM
[19] = second compound 0.00949 µM, first compound 0.0316 µM
[20] = second compound 0.00949 µM, first compound 0.1 µM
[21] = second compound 0.00949 µM, first compound 0.316 µM
[22] = second compound 0.00949 µM, first compound 1 µM
[23] = second compound 0.00949 µM, first compound 3.16 µM
[24] = second compound 0.00949 µM, first compound 10 µM
[25] = second compound 0.03 µM, first compound 0.0316 µM
[26] = second compound 0.03 µM, first compound 0.1 µM
[27] = second compound 0.03 µM, first compound 0.316 µM
[28] = second compound 0.03 µM, first compound 1 µM
[29] = second compound 0.03 µM, first compound 3.16 µM
[30] = second compound 0.03 µM, first compound 10 µM
[31] = second compound 0.0949 µM, first compound 0.0316 µM
[32] = second compound 0.0949 µM, first compound 0.1 µM
[33] = second compound 0.0949 µM, first compound 0.316 µM
[34] = second compound 0.0949 µM, first compound 1 µM
[35] = second compound 0.0949 µM, first compound 3.16 µM
[36] = second compound 0.0949 µM, first compound 10 µM
[37] = second compound 0.3 µM, first compound 0.0316 µM
[38] = second compound 0.3 µM, first compound 0.1 µM
[39] = second compound 0.3 µM, first compound 0.316 µM
[40] = second compound 0.3 µM, first compound 1 µM
[41] = second compound 0.3 µM, first compound 3.16 µM
[42] = second compound 0.3 µM, first compound 10 µM

IC50 [1]: 75.4 nM | IC50 [2]: 76.5 nM | IC50 [3]: 74.3 nM | IC50 [4]: 71 nM | IC50 [5]: 67.7 nM | IC50 [6]: 62.4 nM
Structure (SMILES): CC1(O)CCCC1n1c(=O)c(C(F)F)cc2cnc(NC3CCN(S(C)(=O)=O)CC3)nc21 (configuration not stated) + CCn1c(-c2cccnc2C(C)OC)c2c3cc(ccc31)N1CCOC(CC(NC(=O)C(C(C)C)N(C)C(=O)C3(F)CCN(C(=O)C#CC(C)(C)N(C)C)CC3)C(=O)N3CCCC(N3)C(=O)OCC(C)(C)C2)C1
viability, T/C [7]: 104% | viability, T/C [8]: 32.6% | viability, T/C [9]: 1.35% | viability, T/C [10]: 2.44% | viability, T/C [11]: 1.45% | viability, T/C [12]: 0.12% | viability, T/C [13]: 100% | viability, T/C [14]: 34.8% | viability, T/C [15]: 1.28% | viability, T/C [16]: 2.8% | viability, T/C [17]: 1.23% | viability, T/C [18]: 0.1% | viability, T/C [19]: 98.1% | viability, T/C [20]: 33.3% | viability, T/C [21]: 0.97% | viability, T/C [22]: 2.52% | viability, T/C [23]: 1.36% | viability, T/C [24]: 0.09% | viability, T/C [25]: 99.8% | viability, T/C [26]: 28.9% | viability, T/C [27]: 1.21% | viability, T/C [28]: 2.78% | viability, T/C [29]: 1.08% | viability, T/C [30]: 0.11% | viability, T/C [31]: 99.9% | viability, T/C [32]: 24.5% | viability, T/C [33]: 1.16% | viability, T/C [34]: 2.55% | viability, T/C [35]: 1.28% | viability, T/C [36]: 0.12% | viability, T/C [37]: 103% | viability, T/C [38]: 13.5% | viability, T/C [39]: 1.13% | viability, T/C [40]: 2.31% | viability, T/C [41]: 1.74% | viability, T/C [42]: 0.16%

IC50 [1]: 6450 nM | IC50 [2]: 6540 nM | IC50 [3]: 5960 nM | IC50 [4]: 5960 nM | IC50 [5]: 5440 nM | IC50 [6]: 4400 nM
Structure (SMILES): CC(Nc1ccc2c(c1)OCCn1cc(N3C(=O)OCC3C(F)F)nc1-2)C(N)=O (configuration not stated) + CCn1c(-c2cccnc2C(C)OC)c2c3cc(ccc31)N1CCOC(CC(NC(=O)C(C(C)C)N(C)C(=O)C3(F)CCN(C(=O)C#CC(C)(C)N(C)C)CC3)C(=O)N3CCCC(N3)C(=O)OCC(C)(C)C2)C1
viability, T/C [7]: 103% | viability, T/C [8]: 94.3% | viability, T/C [9]: 96.2% | viability, T/C [10]: 87.2% | viability, T/C [11]: 83.5% | viability, T/C [12]: 30.4% | viability, T/C [13]: 99.5% | viability, T/C [14]: 96.1% | viability, T/C [15]: 94.5% | viability, T/C [16]: 90.5% | viability, T/C [17]: 79.8% | viability, T/C [18]: 32.7% | viability, T/C [19]: 98.7% | viability, T/C [20]: 97.1% | viability, T/C [21]: 96.5% | viability, T/C [22]: 92% | viability, T/C [23]: 85.3% | viability, T/C [24]: 21.6% | viability, T/C [25]: 94.1% | viability, T/C [26]: 96.6% | viability, T/C [27]: 96.5% | viability, T/C [28]: 91.8% | viability, T/C [29]: 83.1% | viability, T/C [30]: 22.9% | viability, T/C [31]: 96.9% | viability, T/C [32]: 98.1% | viability, T/C [33]: 94.5% | viability, T/C [34]: 91.1% | viability, T/C [35]: 80.2% | viability, T/C [36]: 17% | viability, T/C [37]: 101% | viability, T/C [38]: 101% | viability, T/C [39]: 97.2% | viability, T/C [40]: 86% | viability, T/C [41]: 65.6% | viability, T/C [42]: 13.2%

IC50 (curve of first compound, second compound 0.00316 µM): 18.4 nM | IC50 (curve of first compound, second compound 0.01 µM): 18.4 nM | IC50 (curve of first compound, second compound 0.0316 µM): 18.4 nM | IC50 (curve of first compound, second compound 0.1 µM): 17.7 nM | IC50 (curve of first compound, second compound 0.316 µM): 18.6 nM | IC50 (curve of first compound, second compound 1 µM): 18.9 nM
Structure (SMILES): Nc1ccn(C2OC(CO)C(O)C2(F)F)c(=O)n1 (configuration not stated) + C=CC(=O)N1CCN(c2nc(OCC3CCCN3C)nc3c(F)c(-c4nc(N)cc(C)c4C(F)(F)F)c(Cl)cc23)C(C)C1
viability, T/C (second compound 0.00316 µM, first compound 0.00316 µM): 102% | viability, T/C (second compound 0.00316 µM, first compound 0.01 µM): 106% | viability, T/C (second compound 0.00316 µM, first compound 0.0316 µM): 1.52% | viability, T/C (second compound 0.00316 µM, first compound 0.1 µM): 2.24% | viability, T/C (second compound 0.00316 µM, first compound 0.316 µM): 1.73% | viability, T/C (second compound 0.00316 µM, first compound 1 µM): 0.82% | viability, T/C (second compound 0.01 µM, first compound 0.00316 µM): 97.8% | viability, T/C (second compound 0.01 µM, first compound 0.01 µM): 111% | viability, T/C (second compound 0.01 µM, first compound 0.0316 µM): 1.3% | viability, T/C (second compound 0.01 µM, first compound 0.1 µM): 2.1% | viability, T/C (second compound 0.01 µM, first compound 0.316 µM): 1.62% | viability, T/C (second compound 0.01 µM, first compound 1 µM): 0.86% | viability, T/C (second compound 0.0316 µM, first compound 0.00316 µM): 94.8% | viability, T/C (second compound 0.0316 µM, first compound 0.01 µM): 114% | viability, T/C (second compound 0.0316 µM, first compound 0.0316 µM): 1.48% | viability, T/C (second compound 0.0316 µM, first compound 0.1 µM): 1.95% | viability, T/C (second compound 0.0316 µM, first compound 0.316 µM): 1.12% | viability, T/C (second compound 0.0316 µM, first compound 1 µM): 0.76% | viability, T/C (second compound 0.1 µM, first compound 0.00316 µM): 99.3% | viability, T/C (second compound 0.1 µM, first compound 0.01 µM): 97.3% | viability, T/C (second compound 0.1 µM, first compound 0.0316 µM): 1.86% | viability, T/C (second compound 0.1 µM, first compound 0.1 µM): 2.03% | viability, T/C (second compound 0.1 µM, first compound 0.316 µM): 1.73% | viability, T/C (second compound 0.1 µM, first compound 1 µM): 1% | viability, T/C (second compound 0.316 µM, first compound 0.00316 µM): 101% | viability, T/C (second compound 0.316 µM, first compound 0.01 µM): 114% | viability, T/C (second compound 0.316 µM, first compound 0.0316 µM): 1.08% | viability, T/C (second compound 0.316 µM, first compound 0.1 µM): 1.62% | viability, T/C (second compound 0.316 µM, first compound 0.316 µM): 1.46% | viability, T/C (second compound 0.316 µM, first compound 1 µM): 0.81% | viability, T/C (second compound 1 µM, first compound 0.00316 µM): 103% | viability, T/C (second compound 1 µM, first compound 0.01 µM): 118% | viability, T/C (second compound 1 µM, first compound 0.0316 µM): 1.88% | viability, T/C (second compound 1 µM, first compound 0.1 µM): 2.07% | viability, T/C (second compound 1 µM, first compound 0.316 µM): 0.99% | viability, T/C (second compound 1 µM, first compound 1 µM): 0.9%

IC50 (curve of compound): 1.74 µM [middle of 4 runs]
Structure (SMILES): CCC(CC)c1cc(NC2CCC(N)C2)n2nccc2n1 (configuration not stated)
viability, T/C (compound 0.0316 µM): 101% [middle of 4 runs] | viability, T/C (compound 0.1 µM): 98% [middle of 4 runs] | viability, T/C (compound 0.316 µM): 99.4% [middle of 4 runs] | viability, T/C (compound 3.16 µM): 1.51% [middle of 4 runs] | viability, T/C (compound 10 µM): 0.97% [middle of 4 runs]
